The values below come from article PMC4133811 (BMB Reports, 2012).

Assay in all cases: NADH oxidation at […] nm, reductive amination of 2-oxoglutarate
What all share (assay type): biochemical

Assay [1] concerns the target hGDH2 (human glutamate dehydrogenase isozyme 2) (Homo sapiens, UniProt P49448).
For assay [2], the target named is hGDH2 (human glutamate dehydrogenase isozyme 2) (Homo sapiens, UniProt P49448, C112A).
In assay [3] the target is hGDH2 (human glutamate dehydrogenase isozyme 2) (Homo sapiens, UniProt P49448, C146A).
Assay [4] has as its target hGDH2 (human glutamate dehydrogenase isozyme 2) (Homo sapiens, UniProt P49448, C327A).
The target of assay [5] is hGDH2 (human glutamate dehydrogenase isozyme 2) (Homo sapiens, UniProt P49448, C172A).
For assay [6], the target named is hGDH2 (human glutamate dehydrogenase isozyme 2) (Homo sapiens, UniProt P49448, C254A).
Chain of hGDH2 (human glutamate dehydrogenase isozyme 2) (Homo sapiens, UniProt P49448, C254A) (P49448 54-558 C254A): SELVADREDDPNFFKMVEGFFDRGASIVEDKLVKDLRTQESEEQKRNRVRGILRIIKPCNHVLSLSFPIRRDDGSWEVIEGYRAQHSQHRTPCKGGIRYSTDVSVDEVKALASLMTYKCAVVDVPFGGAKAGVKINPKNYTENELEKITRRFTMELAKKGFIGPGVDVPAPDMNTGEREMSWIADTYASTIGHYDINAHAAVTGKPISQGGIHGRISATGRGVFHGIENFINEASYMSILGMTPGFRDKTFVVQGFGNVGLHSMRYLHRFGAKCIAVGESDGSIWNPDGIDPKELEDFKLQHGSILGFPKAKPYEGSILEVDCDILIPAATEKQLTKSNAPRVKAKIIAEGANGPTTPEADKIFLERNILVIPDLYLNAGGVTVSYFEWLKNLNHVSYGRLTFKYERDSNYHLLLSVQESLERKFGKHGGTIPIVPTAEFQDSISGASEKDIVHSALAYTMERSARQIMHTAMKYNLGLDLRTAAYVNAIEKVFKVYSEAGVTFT

Chain of hGDH2 (human glutamate dehydrogenase isozyme 2) (Homo sapiens, UniProt P49448) (P49448 54-558): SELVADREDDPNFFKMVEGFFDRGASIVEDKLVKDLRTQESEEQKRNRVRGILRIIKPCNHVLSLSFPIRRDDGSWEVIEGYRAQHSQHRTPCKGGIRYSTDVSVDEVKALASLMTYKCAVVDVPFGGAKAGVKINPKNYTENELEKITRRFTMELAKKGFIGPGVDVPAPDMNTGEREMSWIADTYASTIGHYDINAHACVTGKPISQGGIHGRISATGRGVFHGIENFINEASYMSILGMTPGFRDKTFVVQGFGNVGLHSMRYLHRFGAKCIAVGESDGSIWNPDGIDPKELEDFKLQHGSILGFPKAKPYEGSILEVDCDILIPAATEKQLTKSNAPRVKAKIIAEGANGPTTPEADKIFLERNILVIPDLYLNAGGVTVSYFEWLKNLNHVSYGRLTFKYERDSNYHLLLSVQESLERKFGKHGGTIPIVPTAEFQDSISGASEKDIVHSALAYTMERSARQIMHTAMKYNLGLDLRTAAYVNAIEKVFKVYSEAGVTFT
Chain of hGDH2 (human glutamate dehydrogenase isozyme 2) (Homo sapiens, UniProt P49448, C327A) (P49448 54-558 C327A): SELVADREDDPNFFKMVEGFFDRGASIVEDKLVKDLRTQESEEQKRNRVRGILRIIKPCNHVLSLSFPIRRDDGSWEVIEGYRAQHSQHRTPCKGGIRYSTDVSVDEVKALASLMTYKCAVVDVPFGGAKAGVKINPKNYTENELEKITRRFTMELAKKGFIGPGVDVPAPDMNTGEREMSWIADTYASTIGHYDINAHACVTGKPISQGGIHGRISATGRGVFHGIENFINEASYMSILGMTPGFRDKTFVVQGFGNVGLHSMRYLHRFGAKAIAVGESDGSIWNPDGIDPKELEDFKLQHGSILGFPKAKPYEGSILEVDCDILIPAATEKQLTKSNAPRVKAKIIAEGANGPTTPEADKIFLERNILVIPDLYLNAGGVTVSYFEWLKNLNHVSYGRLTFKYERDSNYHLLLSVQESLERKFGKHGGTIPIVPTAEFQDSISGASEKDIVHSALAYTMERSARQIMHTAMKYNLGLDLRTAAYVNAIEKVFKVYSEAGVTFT
Chain of hGDH2 (human glutamate dehydrogenase isozyme 2) (Homo sapiens, UniProt P49448, C146A) (P49448 54-558 C146A): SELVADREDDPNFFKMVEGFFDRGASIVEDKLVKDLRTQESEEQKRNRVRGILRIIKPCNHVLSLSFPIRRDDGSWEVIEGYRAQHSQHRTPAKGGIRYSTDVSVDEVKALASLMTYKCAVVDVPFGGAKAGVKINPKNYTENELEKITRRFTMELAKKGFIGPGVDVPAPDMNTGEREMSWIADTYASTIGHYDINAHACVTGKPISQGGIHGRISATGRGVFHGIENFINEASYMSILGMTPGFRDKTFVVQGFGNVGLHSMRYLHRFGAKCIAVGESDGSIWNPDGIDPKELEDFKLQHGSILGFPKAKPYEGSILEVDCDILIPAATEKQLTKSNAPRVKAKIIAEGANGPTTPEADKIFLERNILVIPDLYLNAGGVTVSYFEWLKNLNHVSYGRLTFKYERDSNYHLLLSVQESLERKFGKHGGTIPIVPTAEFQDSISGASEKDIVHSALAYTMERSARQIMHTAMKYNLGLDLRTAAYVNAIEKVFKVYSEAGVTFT
Chain of hGDH2 (human glutamate dehydrogenase isozyme 2) (Homo sapiens, UniProt P49448, C172A) (P49448 54-558 C172A): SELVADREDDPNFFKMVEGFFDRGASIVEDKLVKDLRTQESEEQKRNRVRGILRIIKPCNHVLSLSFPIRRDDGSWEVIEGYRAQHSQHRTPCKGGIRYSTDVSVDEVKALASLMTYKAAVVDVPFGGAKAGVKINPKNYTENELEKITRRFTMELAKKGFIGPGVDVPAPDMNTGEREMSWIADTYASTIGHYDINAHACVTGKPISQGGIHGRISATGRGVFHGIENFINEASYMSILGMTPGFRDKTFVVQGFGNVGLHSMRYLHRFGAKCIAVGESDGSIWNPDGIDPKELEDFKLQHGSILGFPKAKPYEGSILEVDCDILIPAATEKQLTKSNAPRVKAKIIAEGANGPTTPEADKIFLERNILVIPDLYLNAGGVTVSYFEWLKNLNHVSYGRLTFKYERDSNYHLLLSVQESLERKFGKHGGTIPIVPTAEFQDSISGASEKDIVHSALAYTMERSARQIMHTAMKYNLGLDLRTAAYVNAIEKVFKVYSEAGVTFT
Chain of hGDH2 (human glutamate dehydrogenase isozyme 2) (Homo sapiens, UniProt P49448, C112A) (P49448 54-558 C112A): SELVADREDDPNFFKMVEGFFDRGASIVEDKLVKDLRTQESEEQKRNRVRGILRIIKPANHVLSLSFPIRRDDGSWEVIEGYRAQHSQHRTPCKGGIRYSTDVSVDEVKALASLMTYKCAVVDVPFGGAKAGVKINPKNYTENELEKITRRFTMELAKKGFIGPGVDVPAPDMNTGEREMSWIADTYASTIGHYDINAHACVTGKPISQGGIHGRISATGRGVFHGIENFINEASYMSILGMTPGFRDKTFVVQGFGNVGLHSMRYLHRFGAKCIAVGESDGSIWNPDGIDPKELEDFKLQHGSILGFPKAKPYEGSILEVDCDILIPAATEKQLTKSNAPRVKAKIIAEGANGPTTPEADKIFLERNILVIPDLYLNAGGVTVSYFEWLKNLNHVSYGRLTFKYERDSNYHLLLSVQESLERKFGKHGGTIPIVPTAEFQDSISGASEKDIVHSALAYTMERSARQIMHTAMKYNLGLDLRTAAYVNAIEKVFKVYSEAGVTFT

In the case of `CCCCCCCCCCCCCCCC(=O)SCCNC(=O)CCNC(=O)[C@H](O)C(C)(C)COP(=O)(O)OP(=O)(O)OC[C@H]1O[C@@H](n2cnc3c(N)ncnc32)[C@H](O)[C@@H]1OP(=O)(O)O` [palmitoyl-CoA], the IC50 came to 1820 nM in assay [1]; 2150 nM in assay [2]; 2600 nM in assay [3]; 2310 nM in assay [4]; 1980 nM in assay [5]; 2470 nM in assay [6].

The IC50 is the concentration needed to halve the response being measured. A lower IC50 goes with greater potency.
